This is an account of results in EP0568946A1, “Compound TAN-1607A, its derivatives, their production, and use thereof” (TAKEDA CHEMICAL INDUSTRIES, LTD., priority 1992, dated 1993).

This data set concerns mice. In words: Acute toxicity test using mice. In kind it is in vivo. The following applies: 100 mg/kg administered intraperitoneally. How it is done: Further, no mice died in an acute toxicity test using mice in which the compound TAN-1607A (100 mg/kg) was administered intraperitoneally.

`CC(=O)OC(CCCC12OC(C(=O)O)C(O)(C(=O)O)C(C(=O)O)(O1)C(OC(=O)CCCCCCCC/C=C/c1ccccc1)C2O)C(C)C/C=C/c1ccccc1` (stereo not shown) [TAN-1607A]: the “acute toxicity (mortality)” value is on record as “no mice died”.
